From patent US5061794A, “Cephalosporin derivatives, and antibacterial agents” (priority 1986, dated 1991)
In brackets after ≈: the same amount, converted by molar mass. Like-named read-outs stand apart in the source and are kept apart here.

What was measured:
[1] = test system: E. coli CSH(RE45); assay: microbe, parasite or virus in culture; format: cell-based; conditions: 10^6 CFU/ml; for MIC: Escherichia coli, 16 h, read-out: Minimum Inhibitory Concentration (MIC), *E. coli CSH(RE45), lactamase-producing strain; for Minimum Inhibitory Concentration (MIC): *E. coli CSH(RE45), lactamase-producing strain
How it was run: (§1)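 Agar dilution: MH agar + graded drug conc.; inoculum 10^6 CFU/ml (overnight MH broth culture, one loopful); 37° C., 16 h; MIC, μg/ml.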

[2] = test system: E. coli CSH2 (RK1); assay: microbe, parasite or virus in culture; format: cell-based; conditions: 10^6 CFU/ml; for MIC: Escherichia coli, 16 h, read-out: Minimum Inhibitory Concentration (MIC), *E. coli CSH2 (RK1), lactamase-producing strain; for Minimum Inhibitory Concentration (MIC): *E. coli CSH2 (RK1), lactamase-producing strain
How it was run: as §1

[3] = test system: E. cloacae 963; assay: in vitro antibacterial activity, agar plate dilution method (MIC); format: cell-based; conditions: 10^6 CFU/ml
How it was run: as §1

[4] = test system: E. cloacae Nek 39; assay: as above; format: cell-based; conditions: 10^6 CFU/ml; for MIC: Enterobacter cloacae, NEK39, 16 h, read-out: Minimum Inhibitory Concentration (MIC), *E. cloacae Nek 39, lactamase-producing strain; for Minimum Inhibitory Concentration (MIC): *E. cloacae Nek 39, lactamase-producing strain
How it was run: as §1

[5] = test system: E. coli GN5482; assay: as above; format: cell-based; conditions: 10^6 CFU/ml; for MIC: Escherichia coli, GN5482, 16 h, read-out: Minimum Inhibitory Concentration (MIC), *E. coli GN5482, lactamase-producing strain; for Minimum Inhibitory Concentration (MIC): *E. coli GN5482, lactamase-producing strain
How it was run: as §1

[6] = test system: E. coli NIHJ JC2; assay: as above; format: cell-based; conditions: for MIC: Escherichia coli, NIHJJC2, 16 h, read-out: Minimum Inhibitory Concentration (MIC), E. coli NIHJ JC2, 10^6 CFU/ml, 37° C.
How it was run: as §1

[7] = test system: K. oxytoca GN10650; assay: as above; format: cell-based; conditions: 10^6 CFU/ml; for MIC: Klebsiella oxytoca, GN10650, 16 h, read-out: Minimum Inhibitory Concentration (MIC), *K. oxytoca GN10650, lactamase-producing strain; for Minimum Inhibitory Concentration (MIC): *K. oxytoca GN10650, lactamase-producing strain
How it was run: as §1

[8] = test system: K. pneumoniae No. 42; assay: as above; format: cell-based; conditions: 10^6 CFU/ml; for MIC: Klebsiella pneumoniae
How it was run: as §1

[9] = test system: K. pneumoniae PCI-602; assay: as above; format: cell-based; conditions: 10^6 CFU/ml; for MIC: Klebsiella pneumoniae, PCI602, 16 h
How it was run: as §1

[10] = test system: M. morganii GN5407; assay: as above; format: cell-based; conditions: 10^6 CFU/ml; for MIC: Morganella morganii, GN5407, 16 h, read-out: Minimum Inhibitory Concentration (MIC), *M. morganii GN5407, lactamase-producing strain; for Minimum Inhibitory Concentration (MIC): *M. morganii GN5407, lactamase-producing strain
How it was run: as §1

[11] = test system: P. vulgaris HX-19; assay: as above; format: cell-based; conditions: P. vulgaris HX-19, 10^6 CFU/ml; for MIC: Proteus vulgaris, HX19, 16 h, read-out: Minimum Inhibitory Concentration (MIC)
How it was run: as §1

[12] = test system: P. vulgaris No. 33; assay: as above; format: cell-based; conditions: 10^6 CFU/ml; for MIC: Proteus vulgaris, NO.33, 16 h, read-out: Minimum Inhibitory Concentration (MIC), *P. vulgaris No. 33, lactamase-producing strain; for Minimum Inhibitory Concentration (MIC): *P. vulgaris No. 33, lactamase-producing strain
How it was run: as §1

[13] = test system: S. aureus 209P NIHJ-JC1; assay: as above; format: cell-based; conditions: 10^6 CFU/ml, 37° C., 16 hours; for MIC: Staphylococcus aureus, 16 h, read-out: Minimum Inhibitory Concentration (MIC), S. aureus 209P NIHJ-JC1; for Minimum Inhibitory Concentration (MIC): S. aureus 209P NIHJ-JC1
How it was run: as §1

[14] = test system: S. marcescens IAM 1184; assay: as above; format: cell-based; conditions: for MIC: Serratia marcescens, IAM1184, 16 h, read-out: Minimum Inhibitory Concentration (MIC)
How it was run: as §1

[15] = test system: S. marcescens No. 16-2; assay: as above; format: cell-based; conditions: for MIC: Serratia marcescens, NO.162, 16 h, read-out: Minimum Inhibitory Concentration (MIC)
How it was run: as §1

[16] = test system: Ps. aeruginosa AK 109; assay: as above; format: cell-based, Pseudomonas aeruginosa; conditions: for MIC: Pseudomonas aeruginosa, AK109, 16 h; for Minimum Inhibitory Concentration (MIC): Ps. aeruginosa AK 109
How it was run: as §1

[17] = test system: Ps. aeruginosa AKR17; assay: as above; format: cell-based, Pseudomonas aeruginosa; conditions: for MIC: Pseudomonas aeruginosa
How it was run: as §1

[18] = test system: Ps. aeruginosa IF03445; assay: as above; format: cell-based, Pseudomonas aeruginosa; conditions: 10^6 CFU/ml; for MIC: Pseudomonas aeruginosa, IF03445, 16 h, read-out: Minimum Inhibitory Concentration (MIC), Ps. aeruginosa IF03445; for Minimum Inhibitory Concentration (MIC): Ps. aeruginosa IF03445
How it was run: as §1

[19] = test system: Ps. cepacia 23; assay: as above; format: cell-based, Pseudomonas cepacia; conditions: Ps. cepacia 23, 10^6 CFU/ml; for MIC: Burkholderia cepacia, 16 h, read-out: Minimum Inhibitory Concentration (MIC)
How it was run: as §1

[20] = test system: A. calcoaceticus No. 4; assay: as above; format: cell-based, Acinetobacter calcoaceticus; conditions: 10^6 CFU/ml; for MIC: Acinetobacter calcoaceticus, NO.4, 16 h
How it was run: as §1

[21] = Enterobacter cloacae, 963, 16 h, read-out: Minimum Inhibitory Concentration (MIC), E. cloacae 963
[22] = K. pneumoniae PCI-602, read-out: Minimum Inhibitory Concentration (MIC)
[23] = S. marcescens IAM 1184, 10^6 CFU/ml
[24] = *S. marcescens No. 16-2, lactamase-producing strain, 10^6 CFU/ml
[25] = *K. pneumoniae No. 42, lactamase-producing strain

Nc1nc(/C(=N/OC(C(=O)O)c2ccc(O)c(O)c2)C(=O)N[C@@H]2C(=O)N3C(C(=O)O)=C(CSc4nnc(-c5ccc(O)c(O)c5)o4)CS[C@H]23)cs1 (some centres unmarked) [compound 16]
MIC [1]: 3.12 µg/mL (≈ 4.12 µM)
MIC [2]: 0.025 µg/mL (≈ 0.033 µM)
MIC [3, 21]: 0.39 µg/mL (≈ 0.515 µM)
MIC [4]: 0.78 µg/mL (≈ 1.03 µM)
MIC [5]: 0.78 µg/mL (≈ 1.03 µM)
MIC [6]: 0.2 µg/mL (≈ 0.264 µM)
MIC [7]: 0.1 µg/mL (≈ 0.132 µM)
MIC ([8]; NO.42, 16 h, read-out: Minimum Inhibitory Concentration (MIC), *K. pneumoniae No. 42, lactamase-producing strain): 0.2 µg/mL (≈ 0.264 µM)
MIC [9, 22]: < 0.006 µg/mL
MIC [10]: 0.2 µg/mL (≈ 0.264 µM)
MIC [11]: 0.05 µg/mL (≈ 0.066 µM)
MIC [12]: 0.78 µg/mL (≈ 1.03 µM)
MIC [13]: 1.56 µg/mL (≈ 2.06 µM)
MIC [14, 23]: 0.1 µg/mL (≈ 0.132 µM)
MIC [15, 24]: 25 µg/mL (≈ 33 µM)
MIC ([16]; read-out: Minimum Inhibitory Concentration (MIC), Ps. aeruginosa AK 109, 10^6 CFU/ml): 0.78 µg/mL (≈ 1.03 µM)
MIC ([17]; AKR17, 16 h, read-out: Minimum Inhibitory Concentration (MIC)): 3.12 µg/mL (≈ 4.12 µM)
MIC [18]: 6.25 µg/mL (≈ 8.25 µM)
MIC [19]: < 0.006 µg/mL
MIC ([20]; read-out: Minimum Inhibitory Concentration (MIC), A. calcoaceticus No. 4): 0.1 µg/mL (≈ 0.132 µM)

CC(=O)Oc1ccc(-c2nc(SCC3=C(C(=O)O)N4C(=O)C(NC(=O)C(=NOC(C(=O)O)c5ccccc5)c5csc(N)n5)C4SC3)sc2CC(=O)O)cc1OC(C)=O (single isomer, unassigned) [Example 61 DB]
Minimum Inhibitory Concentration (MIC) [1]: 12.5 µg/mL
Minimum Inhibitory Concentration (MIC) [2]: 0.05 µg/mL
Minimum Inhibitory Concentration (MIC) ([3]; E. cloacae 963): 0.78 µg/mL
Minimum Inhibitory Concentration (MIC) [4]: 0.39 µg/mL
Minimum Inhibitory Concentration (MIC) [5]: 1.56 µg/mL
MIC [6]: 3.12 µg/mL (≈ 3.53 µM)
Minimum Inhibitory Concentration (MIC) [7]: 0.2 µg/mL
Minimum Inhibitory Concentration (MIC) [8, 25]: 0.39 µg/mL
MIC [9, 22]: 0.025 µg/mL (≈ 0.0283 µM)
Minimum Inhibitory Concentration (MIC) [10]: 0.39 µg/mL
Minimum Inhibitory Concentration (MIC) [11]: 0.05 µg/mL
Minimum Inhibitory Concentration (MIC) [12]: 0.2 µg/mL
Minimum Inhibitory Concentration (MIC) [13]: 50 µg/mL
MIC [14]: 0.39 µg/mL (≈ 0.442 µM)
MIC [15]: 3.12 µg/mL (≈ 3.53 µM)
Minimum Inhibitory Concentration (MIC) ([16]; 10^6 CFU/ml): 1.56 µg/mL
Minimum Inhibitory Concentration (MIC) ([17]; Ps. aeruginosa AKR17, 10^6 CFU/ml): 0.78 µg/mL
Minimum Inhibitory Concentration (MIC) [18]: 3.12 µg/mL
Minimum Inhibitory Concentration (MIC) [19]: < 0.006 µg/mL
Minimum Inhibitory Concentration (MIC) ([20]; A. calcoaceticus No. 4): 0.39 µg/mL

C=CCO/N=C(\C(=O)N[C@@H]1C(=O)N2C(C(=O)O)=C(CSc3nnc(-c4ccc(O)c(O)c4)s3)CS[C@H]12)c1csc(N)n1 [compound 30, sodium 78-[2-allyloxyimino-2-(2-aminothiazol-4-yl)acetamido]-3-[5-(3,4-dihydroxyphenyl)-1,3,4-thiadiazol-2-yl]thiomethyl-3-cephem-4-carboxylate]
MIC [1]: 0.78 µg/mL
MIC [2]: 0.0125 µg/mL
MIC [3, 21]: 0.05 µg/mL
MIC [4]: 0.1 µg/mL
MIC [5]: 0.78 µg/mL
MIC [6]: 0.2 µg/mL
MIC [7]: 1.56 µg/mL
MIC ([8]; 16 h, *K. pneumoniae No. 42, lactamase-producing strain, read-out: Minimum Inhibitory Concentration (MIC)): < 0.006 µg/mL
MIC ([9]; read-out: Minimum Inhibitory Concentration (MIC), K. pneumoniae PCI-602): < 0.006 µg/mL
MIC [10]: 0.05 µg/mL
MIC [11]: < 0.006 µg/mL
MIC [12]: 0.39 µg/mL
MIC [13]: 0.78 µg/mL
MIC [14]: 0.0125 µg/mL
MIC [15]: 12.5 µg/mL
MIC ([16]; read-out: Minimum Inhibitory Concentration (MIC)): 0.39 µg/mL
MIC ([17]; 16 h, Ps. aeruginosa AKR17, 10^6 CFU/ml, read-out: Minimum Inhibitory Concentration (MIC)): 25 µg/mL
MIC [18]: 0.39 µg/mL
MIC [19]: < 0.006 µg/mL
MIC ([20]; A. calcoaceticus No. 4, read-out: Minimum Inhibitory Concentration (MIC)): 0.2 µg/mL

Nc1nc(C(=NOC(C(=O)O)c2ccc(O)c(O)c2)C(=O)NC2C(=O)N3C(C(=O)O)=C(CSc4nnc(-c5ccc(O)c(O)c5)s4)CSC23)cs1 (single isomer, unassigned) [Example 38 DB, disodium 7β-{2-(2-aminothiazol-4-yl)-2-(α-carboxylate-3,4-dihydroxybenzyloxyimino)acetamido]-3-[5-(3,4-dihydroxyphenyl)-1,3,4-thiadiazol-2-yl]thiomethyl-3-cephem-4-carboxylate]
Minimum Inhibitory Concentration (MIC) [1]: 0.0125 µg/mL
Minimum Inhibitory Concentration (MIC) [2]: 0.025 µg/mL
MIC ([3]; Enterobacter cloacae, 16 h, E. cloacae 963, read-out: Minimum Inhibitory Concentration (MIC)): 0.2 µg/mL
Minimum Inhibitory Concentration (MIC) [4]: 0.39 µg/mL
Minimum Inhibitory Concentration (MIC) [5]: 0.78 µg/mL
Minimum Inhibitory Concentration (MIC) ([6]; E. coli NIHJ JC2, 10^6 CFU/ml, 37° C., 16 hours): 0.78 µg/mL
Minimum Inhibitory Concentration (MIC) [7]: 0.1 µg/mL
Minimum Inhibitory Concentration (MIC) [8, 25]: 0.1 µg/mL
Minimum Inhibitory Concentration (MIC) ([9]; K. pneumoniae PCI-602): < 0.006 µg/mL
Minimum Inhibitory Concentration (MIC) [10]: 0.2 µg/mL
MIC [11]: 0.025 µg/mL
Minimum Inhibitory Concentration (MIC) [12]: 0.1 µg/mL
Minimum Inhibitory Concentration (MIC) [13]: 1.56 µg/mL
Minimum Inhibitory Concentration (MIC) [14, 23]: 0.1 µg/mL
Minimum Inhibitory Concentration (MIC) [15, 24]: 6.25 µg/mL
Minimum Inhibitory Concentration (MIC) ([16]; 10^6 CFU/ml): 0.78 µg/mL
MIC ([17]; AKR17, 16 h, read-out: Minimum Inhibitory Concentration (MIC), Ps. aeruginosa AKR17, 10^6 CFU/ml): 1.56 µg/mL
Minimum Inhibitory Concentration (MIC) [18]: 3.12 µg/mL
Minimum Inhibitory Concentration (MIC) [19]: < 0.006 µg/mL
Minimum Inhibitory Concentration (MIC) ([20]; A. calcoaceticus No. 4): 0.05 µg/mL
